Measured values from ChEMBL document CHEMBL1146181, “7'-substituted benzothiazolothio- and pyridinothiazolothio-purines as potent heat shock protein 90 inhibitors” (J Med Chem, 2006).
Converted amounts (≈) assume the structure as drawn.

Assays:
[1] = test system: MCF7; test: Viability of MCF7 cells by MTS assay; assay type: functional, cell-based; conditions: Homo sapiens
[2] = target: T1, Heat shock protein HSP90 (Homo sapiens, UniProt P07900+P08238); test: Ability to degrade Her2 in MCF7 cells; assay type: functional, cell-based
[3] = Solubility in Balb/C mouse serum at pH 7.4; assay type: ADME, cell-free
[4] = Solubility in simulated intestinal fluid at pH 6.5; assay type: physicochemical
[5] = Solubility in simulated gastric fluid at pH 2.0; assay type: physicochemical
[6] = target: T1, Heat shock protein HSP90; conditions: mcf7
Description: Binding affinity to Hsp90 in MCF7 cell lysate

[7] = test system: Mus musculus; test: AUC in Balb/C mouse at 100 mg/kg, po; assay type: ADME, organism-based, Plasma; design: dose 100 mg/kg, route oral; conditions: in vivo
[8] = test system: NCI-N87; test: Inhibition of N87 cell line xenografted in mouse at 200 mg/kg, po; assay type: functional, Homo sapiens; conditions: read-out: TGI
[9] = Cmax in Balb/C mouse at 100 mg/kg, po; assay type: ADME, organism-based; design: dose 100 mg/kg, route oral; conditions: in vivo

Structure (SMILES) | EC50 [1] [nM] | IC50 [2] [nM] | further results
Nc1ncnc2c1nc(Sc1nc3cccc(Cl)c3s1)n2CCO | 700 | 300 | –
CC(C)(C)NCCCn1c(Sc2nc3cccc(Cl)c3s2)nc2c(N)ncnc21 | 200 | 150 | solubility [3]: 199 µg/mL (≈ 444 µM); solubility [4]: 138 µg/mL (≈ 307 µM)
CCCCn1c(Sc2nc3c(Cl)cccc3s2)nc2c(N)ncnc21 | 20000 | 15000 | –
CC(=O)OCCCn1c(Sc2nc3cccc(Cl)c3s2)nc2c(N)ncnc21 | 200 | 90 | solubility [3]: 9 µg/mL (≈ 20.7 µM); solubility [5]: 220 µg/mL (≈ 506 µM); EC50 [6]: 160 nM; solubility [4]: 16 µg/mL (≈ 36.8 µM); AUC [7]: 1.04 µg·h/mL
CCOP(=O)(CCn1c(Sc2nc3cncc(Br)c3s2)nc2c(N)ncnc21)OCC | 100 | – | –
CCOP(=O)(CCn1c(Sc2nc3cncc(Cl)c3s2)nc2c(N)ncnc21)OCC | 250 | – | solubility [3]: 14 µg/mL (≈ 28 µM); solubility [5]: 124 µg/mL (≈ 248 µM); solubility [4]: 38.3 µg/mL (≈ 76.6 µM)
CCCCn1c(Sc2nc3ccccc3s2)nc2c(N)ncnc21 | 10000 | 5000 | –
CCCCn1c(Sc2nc3cc(Cl)ccc3s2)nc2c(N)ncnc21 | 20000 | 20000 | –
CCCCn1c(Sc2nc3cccc(Cl)c3s2)nc2c(N)ncnc21 | 250 | 180 | –
CCCCn1c(Sc2nc3cccc(OCC)c3s2)nc2c(N)ncnc21 | 16000 | 100000 | –
CCCCn1c(Sc2nc3cccc(F)c3s2)nc2c(N)ncnc21 | 1000 | 200 | –
CCCCn1c(Sc2nc3ccc(Cl)c(Cl)c3s2)nc2c(N)ncnc21 | 20000 | 25000 | –
CC(C)(C)CNCCn1c(Sc2nc3cccc(Cl)c3s2)nc2c(N)ncnc21 | 30 | 35 | solubility [3]: 4.9 µg/mL (≈ 10.9 µM)
Nc1ncnc2c1nc(Sc1nc3cccc(Cl)c3s1)n2CCNC1CC1 | 300 | 110 | inhibition in vivo at 200 mg/kg [8]: 56%; Cmax [9]: 4510 ng/mL; solubility [3]: 59 µg/mL (≈ 141 µM); solubility [5]: 245 µg/mL (≈ 586 µM); EC50 [6]: 130 nM; solubility [4]: 21 µg/mL (≈ 50.2 µM); AUC [7]: 7.31 µg·h/mL
CC(=O)OCCCn1c(Sc2nc3cncc(Cl)c3s2)nc2c(N)ncnc21 | 1000 | 170 | –
CCCCn1c(Sc2nc3cncc(Br)c3s2)nc2c(N)ncnc21 | 4000 | 400 | –
CCOP(=O)(CCn1c(Sc2nc3cccc(Cl)c3s2)nc2c(N)ncnc21)OCC | – | – | solubility [5]: 98.5 µg/mL (≈ 197 µM)

Structure (SMILES) | EC50 [1] [nM] | IC50 [2] [nM] | further results
CC(=O)OCCCCn1c(Sc2nc3cccc(Cl)c3s2)nc2c(N)ncnc21 | 240 | 130 | solubility [5]: 46 µg/mL (≈ 102 µM); EC50 [6]: 140 nM; solubility [4]: 3 µg/mL (≈ 6.68 µM)
CCCCn1c(Sc2nc3ccc(Cl)cc3s2)nc2c(N)ncnc21 | 20000 | 7000 | –
CCCCn1c(Sc2nc3cncc(Cl)c3s2)nc2c(N)ncnc21 | 1000 | 280 | –
Nc1ncnc2c1nc(Sc1nc3cccc(Cl)c3s1)n2CCN1CCOCC1 | 300 | 250 | EC50 [6]: 150 nM
CCCn1c(Sc2nc3cccc(Cl)c3s2)nc2c(N)ncnc21 | 850 | 250 | –
Nc1ncnc2c1nc(Sc1nc3cccc(Cl)c3s1)n2CCCO | 250 | 150 | –
Nc1ncnc2c1nc(Sc1nc3cccc(Cl)c3s1)n2CCCCO | 200 | 150 | –
CC(C)(C)NCCn1c(Sc2nc3cccc(Cl)c3s2)nc2c(N)ncnc21 | 300 | 140 | –
N#CCCCCn1c(Sc2nc3cccc(Cl)c3s2)nc2c(N)ncnc21 | 300 | 110 | solubility [3]: 31.3 µg/mL (≈ 75.3 µM); solubility [5]: 58.7 µg/mL (≈ 141 µM); EC50 [6]: 100 nM; solubility [4]: 4.4 µg/mL (≈ 10.6 µM)
CCCCn1c(Sc2nc3cccc(OC)c3s2)nc2c(N)ncnc21 | 230 | 190 | solubility [3]: 18 µg/mL (≈ 46.6 µM); solubility [5]: 35 µg/mL (≈ 90.6 µM); EC50 [6]: 200 nM; solubility [4]: 2 µg/mL (≈ 5.17 µM)
CCCCn1c(Sc2nc3cccc(C)c3s2)nc2c(N)ncnc21 | 1300 | 300 | –
CC(C)NCCCn1c(Sc2nc3cccc(Cl)c3s2)nc2c(N)ncnc21 | 500 | 170 | –
CCCCn1c(Sc2nc3cccc(Br)c3s2)nc2c(N)ncnc21 | 2000 | 330 | –
CCCCCn1c(Sc2nc3cccc(Cl)c3s2)nc2c(N)ncnc21 | 6000 | 700 | –
CCn1c(Sc2nc3cccc(Cl)c3s2)nc2c(N)ncnc21 | 800 | 200 | –
CC(=O)OCCn1c(Sc2nc3cccc(Cl)c3s2)nc2c(N)ncnc21 | 300 | 150 | –
